For assay [1], the system named is yeasts (Rhodotorula rubra). Kind of assay: Preservation of a cooling lubricant emulsion, repeated weekly contamination: yeasts. Conditions: limit <10^3-4 CFU/g, maximum test duration 10 weeks. On the procedure: (§1) What was examined was the preserving action of CMC/MIT mixtures according to the invention in a cooling lubricant emulsion (5% mineral oil/emulsifier concentrate/95% water). To this end, biocide-free and perserved samples of a cooling lubricant emulsion were repeatedly, at weekly intervals, exposed to microbiological stress using the following microorganisms:
Yeasts: • Rhodotorula rubra
(§2) In each case, the bacteria were added separately from the yeasts/moulds.
(§3) The maximum duration of the test was 10 weeks (=10 contaminations), if the following limits were not exceeded during the weekly determination of the number of germs:
(§4) yeasts/moulds<10^3-4 CFU/g.

Assay [2] concerns moulds (Acremonium strictum, Fusarium solani, Geotrichum candidum). Kind of assay: Preservation of a cooling lubricant emulsion, repeated weekly contamination: moulds. Conditions: limit <10^3-4 CFU/g, maximum test duration 10 weeks. On the procedure: as §1
Moulds: • Acremonium strictum • Fusarium solani • Geotrichum candidum
as §2, §3, §4

Assay [3] concerns bacteria (Pseudomonas aeruginosa, P. fluorescens, P. oleovorans, P. rubescens, P. stutzeri, Alcaligenes faecalis, Citrobacter freundii, Corynebacterium sp). Kind of assay: Preservation of a cooling lubricant emulsion, repeated weekly contamination: bacteria. Conditions: limit <10^6 CFU/g, maximum test duration 10 weeks.
Excerpt: as §1
Bacteria: • Pseudomonas aeruginosa • Pseudomonas fluorescens • Pseudomonas oleovorans • Pseudomonas rubescens • Pseudomonas stutzeri • Alcaligenes faecalis • Citrobacter freundii • Corynebacterium sp
as §2
The maximum duration of the test was 10 weeks (=10 contaminations), if the following limits were not exceeded during the weekly determination of the number of germs: […]

The subject of assay [4] is Pseudomonas fluorescens. Nature of the assay: Minimum inhibitory concentration / synergism test with test germ Pseudomonas fluorescens. The assay is classed as cell-based. Conditions: pure active compound applied on its own. An excerpt: The observed synergism of the mixtures according to the invention can be determined by the following mathematical approach (cf. F. C. Kull, P. C. Elisman, H. D. Sylwestrowicz and P. K. Mayer, Appl. Microbiol. 9, 538 (1961): [formula] where • Qa=the amount of component A in the active compound mixture required to achieve the desired effect, i.e. no microbial growth, • QA=the amount of component A which, applied on its own, suppresses the growth of the microorganisms, • Qb=the amount of component B in the active compound mixture which suppresses the growth of the microorganisms, and • […]=the amount of component B which, applied on its own, suppresses the growth of the microorganisms.
A synergistic index of SI<1, in accordance with the above formula, indicates a synergistic effect for the active compound mixture.
The minimum inhibitory concentration of the active compound combinations listed in Table 1 were examined using the test germ Pseudomonas fluorescens

[5] abbreviates: 0.15% CMC based on cooling lubricant emulsion.
Setting [6] is: 0.01% MIT based on cooling lubricant emulsion.

The text below walks through data of patent US20060205716A1, “Microbicidal agents” (priority 2003, published 2006).

As to `Cc1cc(O)ccc1Cl` [CMC, p-chloro-m-cresol], the “number of weeks without colonization: yeasts” value in assay [1] (setting [5]) came out at 10 weeks. Further, the “number of weeks without colonization: moulds” value in assay [2] (setting [5]) was 10 weeks. In addition, the “number of weeks without colonization: bacteria” value in assay [3] (setting [5]) amounted to 3 weeks. Besides, in assay [4], the “Amount of pure active compounds required to suppress growth (QA, QB)” value is 150 (QA) ppm.
Regarding `Cn1sccc1=O` [MIT, 2-methyl-2H-isothiazol-3-one], the “number of weeks without colonization: yeasts” value in assay [1] (setting [6]) is 8 weeks. Besides, the “number of weeks without colonization: moulds” value in assay [2] (setting [6]) worked out at 5 weeks. Also, in assay [3] (setting [6]), the “number of weeks without colonization: bacteria” value was found to be 8 weeks. Further, the “Amount of pure active compounds required to suppress growth (QA, QB)” value in assay [4] is reported as 5 (QB) ppm.
